According to patent US20240408085A1, “COMPOUND FOR DEGRADATION OF BCL-2 FAMILY PROTEINS AND MEDICAL APPLICATION THEREOF” (XIZANG HAISCO PHARMACEUTICAL CO., LTD., priority 2021, published 2024):

System: MOLT-4 cells
Experiment: Cell proliferation activity in MOLT-4 cells (72 h, cell viability luminescence)
Type: cell-based, human
Conditions: Homo sapiens, read-out: IC50 for the inhibition of MOLT-4 cell proliferation
Protocol: MOLT-4 cells are acute lymphoblastic leukemia cell lines in humans. The cells were purchased from ATCC. Culture conditions: RPMI-1640+10% FBS+1% penicillin-streptomycin solution. The cells were cultured in a 37° C., 5% CO2 incubator. The cells were plated in a 96-well plate, with 5×10^3 cells/well. After plating, compounds at different concentrations were added and cultured in a 37° C., 5% CO2 incubator for 72 h. After the completion of culture, a reagent (Promega, G7573) for detecting the cell viability was added. The mixture was uniformly mixed for 2 minutes and then incubated at room temperature for 10 minutes. The luminescence signal was detected with a multimode plate reader (BMG, PHERAstar FSX). The luminescence readings were processed using GraphPad Prism 8.0 software and the IC50 values of the compounds for the inhibition of cell proliferation and the maximum inhibition rate were calculated according to formula (2) and formula (3), respectively, wherein Tadministration denotes the cell signal readings obtained after incubation with the compounds for 72 h, and Tvehicle denotes the cell signal readings obtained after incubation with the vehicle control for 72 h.
Calculation of Max inhibition %: after the processing according to formula (2), the inhibition rate of the compounds at the highest concentration was calculated.

Row | IC50 | SMILES
1 | < 0.5 µM | Cc1ncsc1-c1ccc([C@H](C)NC(=O)[C@@H]2C[C@@H](O)CN2C(=O)[C@@H](NC(=O)CCCCCC(=O)N2CC3CC2CN3CC[C@H](CSc2ccccc2)Nc2ccc(S(=O)(=O)NC(=O)c3ccc(N4CCN(CC5=C(c6ccc(Cl)cc6)CCC(C)(C)C5)CC4)cc3)cc2S(=O)(=O)C(F)(F)F)C(C)(C)C)cc1 (stereo partly drawn) [Compound 2, (2S,4R)-1-((2S)-2-(7-(5-((R)-3-((4-(N-(4-(4-((4′-chloro-4,4-dimethyl-3,4,5,6-tetrahydro-[1,1′-biphenyl]-2-yl)methyl)piperazin-1-yl)benzoyl)sulfamoyl)-2-((trifluoromethyl)sulfonyl)phenyl)amino)-4-(phenylthio)butyl)-2,5-diazabicyclo[2.2.1]heptan-2-yl)-7-oxoheptanamido)-3,3-dimethylbutanoyl)-4-hydroxy-N—((S)-1-(4-(4-methylthiazol-5-yl)phenyl)ethyl)pyrrolidine-2-carboxamide]
2 | < 0.5 µM | Cc1ncsc1-c1ccc([C@H](C)NC(=O)[C@@H]2C[C@@H](O)CN2C(=O)[C@@H](NC(=O)CCCCCC(=O)N2CCN(CC[C@H](CSc3ccccc3)Nc3ccc(S(=O)(=O)NC(=O)c4ccc(N5CCN(CC6=C(c7ccc(C#N)cc7)CCC(C)(C)C6)CC5)cc4)cc3S(=O)(=O)C(F)(F)F)CC2)C(C)(C)C)cc1 [Trifluoroacetate of compound 4, (2S,4R)-1-((S)-2-(7-(4-((R)-3-((4-(N-(4-(4-((4′-cyano-4,4-dimethyl-3,4,5,6-tetrahydro-[1,1′-biphenyl]-2-yl)methyl)piperazin-1-yl)benzoyl)sulfamoyl)-2-((trifluoromethyl)sulfonyl)phenyl)amino)-4-(phenylthio)butyl)piperazin-1-yl)-7-oxoheptanamido)-3,3-dimethylbutanoyl)-4-hydroxy-N—((S)-1-(4-(4-methylthiazol-5-yl)phenyl)ethyl)pyrrolidine-2-carboxamide]
3 | < 0.5 µM | Cc1ncsc1-c1ccc([C@H](C)NC(=O)[C@@H]2C[C@@H](O)CN2C(=O)[C@@H](NC(=O)CCCCCC(=O)N2CCC3(CC2)CN(CC[C@H](CSc2ccccc2)Nc2ccc(S(=O)(=O)NC(=O)c4ccc(N5CCN(CC6=C(c7ccc(Cl)cc7)CCC(C)(C)C6)CC5)cc4)cc2S(=O)(=O)C(F)(F)F)C3)C(C)(C)C)cc1 [Trifluoroacetate of compound 9, (2S,4R)-1-((S)-2-(7-(2-((R)-3-((4-(N-(4-(4-((4′-chloro-4,4-dimethyl-3,4,5,6-tetrahydro-[1,1′-biphenyl]-2-yl)methyl)piperazin-1-yl)benzoyl)sulfamoyl)-2-((trifluoromethyl)sulfonyl)phenyl)amino)-4-(phenylthio)butyl)-2,7-diazaspiro[3.5]nonan-7-yl)-7-oxoheptanamido)-3,3-dimethylbutanoyl)-4-hydroxy-N—((S)-1-(4-(4-methylthiazol-5-yl)phenyl)ethyl)pyrrolidine-2-carboxamide]
4 | < 0.5 µM | Cc1ncsc1-c1ccc([C@H](C)NC(=O)[C@@H]2C[C@@H](O)CN2C(=O)[C@@H](NC(=O)CCCCCC(=O)N2CCN(CC[C@H](CSc3ccccc3)Nc3ccc(S(=O)(=O)NC(=O)c4ccc(N5CCN(CC6=C(c7ccc(Cl)cc7)CCC(C)(C)C6)CC5)nc4)cc3S(=O)(=O)C(F)(F)F)CC2)C(C)(C)C)cc1 [Compound 7, 6-(4-((4′-chloro-4,4-dimethyl-3,4,5,6-tetrahydro-[1,1′-biphenyl]-2-yl)methyl)piperazin-1-yl)-N-((4-(((R)-4-(4-(7-(((S)-1-((2S,4R)-4-hydroxy-2-(((S)-1-(4-(4-methylthiazol-5-yl)phenyl)ethyl)carbamoyl)pyrrolidin-1-yl)-3,3-dimethyl-1-oxobutan-2-yl)amino)-7-oxoheptanoyl)piperazin-1-yl)-1-(phenylthio)butan-2-yl)amino)-3-((trifluoromethyl)sulfonyl)phenyl)sulfonyl)nicotinamide]
5 | < 0.5 µM | Cc1ncsc1-c1ccc([C@H](C)NC(=O)[C@@H]2C[C@@H](O)CN2C(=O)[C@@H](NC(=O)CCCCCCC(=O)N2C[C@@H]3C[C@H]2CN3CC[C@H](CSc2ccccc2)Nc2ccc(S(=O)(=O)NC(=O)c3ccc(N4CCN(CC5=C(c6ccc(Cl)cc6)CCC6(CC6)C5)CC4)cc3)cc2S(=O)(=O)C(F)(F)F)C(C)(C)C)cc1 [Compound 28, (2S,4R)-1-((S)-2-(8-((1S,4S)-5-((R)-3-((4-(N-(4-(4-((6-(4-chlorophenyl)spiro[2.5]oct-5-en-5-yl)methyl)piperazin-1-yl)benzoyl)sulfamoyl)-2-((trifluoromethyl)sulfonyl)phenyl)amino)-4-(phenylthio)butyl)-2,5-diazabicyclo[2.2.1]heptan-2-yl)-8-oxooctanamido)-3,3-dimethylbutanoyl)-4-hydroxy-N—((S)-1-(4-(4-methylthiazol-5-yl)phenyl)ethyl)pyrrolidine-2-carboxamide]
6 | < 0.5 µM | Cc1ncsc1-c1ccc([C@H](C)NC(=O)[C@@H]2C[C@@H](O)CN2C(=O)[C@@H](NC(=O)CCCCCCC(=O)N2C[C@@H]3C[C@H]2CN3CC[C@H](CSc2ccccc2)Nc2ccc(S(=O)(=O)NC(=O)c3ccc(N4CCN(CC5=C(c6ccc(Cl)cc6)CCCCC5)CC4)cc3)cc2S(=O)(=O)C(F)(F)F)C(C)(C)C)cc1 [Compound 34, (2S,4R)-1-((S)-2-(8-((1S,4S)-5-((R)-3-((4-(N-(4-(4-((2-(4-chlorophenyl)cyclohept-1-en-1-yl)methyl)piperazin-1-yl)benzoyl)sulfamoyl)-2-((trifluoromethyl)sulfonyl)phenyl)amino)-4-(phenylthio)butyl)-2,5-diazabicyclo[2.2.1]heptan-2-yl)-8-oxooctanamido)-3,3-dimethylbutanoyl)-4-hydroxy-N—((S)-1-(4-(4-methylthiazol-5-yl)phenyl)ethyl)pyrrolidine-2-carboxamide]
7 | < 0.5 µM | Cc1ncsc1-c1ccc([C@H](C)NC(=O)[C@@H]2C[C@@H](O)CN2C(=O)[C@@H](NC(=O)CCCCCCC(=O)N2C[C@H]3CN(CC[C@H](CSc4ccccc4)Nc4ccc(S(=O)(=O)NC(=O)c5ccc(N6CCN(CC7=C(c8ccc(Cl)cc8F)CCC8(CC8)C7)CC6)cc5)cc4S(=O)(=O)C(F)(F)F)C[C@H]3C2)C(C)(C)C)cc1 [Compound 23, cis-(2S,4R)-1-((S)-2-(8-(5-((R)-3-((4-(N-(4-(4-((6-(4-chloro-2-fluorophenyl)spiro[2.5]oct-5-en-5-yl)methyl)piperazin-1-yl)benzoyl)sulfamoyl)-2-((trifluoromethyl)sulfonyl)phenyl)amino)-4-(phenylthio)butyl)hexahydropyrrolo[3,4-c]pyrrol-2(1H)-yl)-8-oxooctanamido)-3,3-dimethylbutanoyl)-4-hydroxy-N—((S)-1-(4-(4-methylthiazol-5-yl)phenyl)ethyl)pyrrolidine-2-carboxamide]
8 | < 0.5 µM | Cc1ncsc1-c1ccc([C@H](C)NC(=O)[C@@H]2C[C@@H](O)CN2C(=O)[C@@H](NC(=O)CCCCCCC(=O)N2CCN(CC[C@H](CSc3ccccc3)Nc3ccc(S(=O)(=O)NC(=O)c4ccc(N5CCN(CC6=C(c7ccc(Cl)cc7F)CCC(C)(C)C6)CC5)cc4)cc3S(=O)(=O)C(F)(F)F)CC2)C(C)(C)C)cc1 [Compound 24, (2S,4R)-1-((S)-2-(8-(4-((R)-3-((4-(N-(4-(4-((4′-chloro-2′-fluoro-4,4-dimethyl-3,4,5,6-tetrahydro-[1,1′-biphenyl]-2-yl)methyl)piperazin-1-yl)benzoyl)sulfamoyl)-2-((trifluoromethyl)sulfonyl)phenyl)amino)-4-(phenylthio)butyl)piperazin-1-yl)-8-oxooctanamido)-3,3-dimethylbutanoyl)-4-hydroxy-N—((S)-1-(4-(4-methylthiazol-5-yl)phenyl)ethyl)pyrrolidine-2-carboxamide]
9 | < 0.5 µM | Cc1ncsc1-c1ccc([C@H](C)NC(=O)[C@@H]2C[C@@H](O)CN2C(=O)[C@@H](NC(=O)CCCCCC(=O)N2CCN(CC[C@H](CSc3ccccc3)Nc3ccc(S(=O)(=O)NC(=O)c4ccc(N5CCN(CC6=C(c7ccc(Cl)cc7F)CCCCC6)CC5)cc4)cc3S(=O)(=O)C(F)(F)F)CC2)C(C)(C)C)cc1 [Compound 35, (2S,4R)-1-((S)-2-(7-(4-((R)-3-((4-(N-(4-(4-((2-(4-chloro-2-fluorophenyl)cyclohept-1-en-1-yl)methyl)piperazin-1-yl)benzoyl)sulfamoyl)-2-((trifluoromethyl)sulfonyl)phenyl)amino)-4-(phenylthio)butyl)piperazin-1-yl)-7-oxoheptanamido)-3,3-dimethylbutanoyl)-4-hydroxy-N—((S)-1-(4-(4-methylthiazol-5-yl)phenyl)ethyl)pyrrolidine-2-carboxamide]
10 | < 0.5 µM | Cc1ncsc1-c1ccc([C@H](C)NC(=O)[C@@H]2C[C@@H](O)CN2C(=O)[C@@H](NC(=O)CCCCCC(=O)N2CCN(CC[C@H](CSc3ccccc3)Nc3ccc(S(=O)(=O)NC(=O)c4ccc(N5CCN(CC6=C(c7ccc(Cl)cc7F)CCC7(CC7)C6)CC5)cc4)cc3S(=O)(=O)C(F)(F)F)CC2)C(C)(C)C)cc1 [Compound 31, (2S,4R)-1-((S)-2-(7-(4-((R)-3-((4-(N-(4-(4-((6-(4-chloro-2-fluorophenyl)spiro[2.5]oct-5-en-5-yl)methyl)piperazin-1-yl)benzoyl)sulfamoyl)-2-((trifluoromethyl)sulfonyl)phenyl)amino)-4-(phenylthio)butyl)piperazin-1-yl)-7-oxoheptanamido)-3,3-dimethylbutanoyl)-4-hydroxy-N—((S)-1-(4-(4-methylthiazol-5-yl)phenyl)ethyl)pyrrolidine-2-carboxamide]
